Laboratory results as given in ChEMBL document CHEMBL5506015, “Discovery of a Meisoindigo-Derived PROTAC as the ATM Degrader: Revolutionizing Colorectal Cancer Therapy via Synthetic Lethality with ATR Inhibitors” (J Med Chem, 2024).
Active and inactive are the calls of the source. The calls are words filed in the database; no cut-off is given here.

Experiments:
SW-620 [1] = assay: Downregulation of PROX1 level in human SW620 cells measured after 12 hrs by immunoblot analysis; assay type: functional, cell-based; conditions: dose 1.25-10 µM
SW-620 [2] = assay: Antitumor activity against human SW620 cells xenografted in Balb/c nude mouse model assessed as decrease in cleaved caspase 3 level at 15 mg/kg/day measured after 14 days by Western blot analysis; assay type: functional, organism-based; conditions: time 14.0 day
SW-620 [3] = assay: Downregulation of KDM4B level in human SW620 cells at 10 uM measured after 12 hrs in presence of tert-butyl ((S)-1-((2S,4R)-4-hydroxy-2-((4-(4-methylthiazol-5-yl)benzyl)carbamoyl)pyrrolidin-1-yl)-3,3-dimethyl-1-oxobutan-2-yl)carbamate by immunoblot analysis; assay type: functional, cell-based
K562 [4] = assay: Downregulation of ATM level in human K562 cells at 20 uM by immunoblot analysis; assay type: functional, cell-based; conditions: time <= 24.0 hrs, TDE = time-dependent effect
SW480 [5] = assay: Downregulation of BCL2 level in human SW480 cells at 5 to 20 uM measured after 8 hrs by immunoblot analysis; assay type: functional, cell-based; conditions: dose 5-20 µM
A2780 = assay: Cytotoxicity against human A2780 cells assessed as reduction in cell viability incubated for 48 hrs by MTT assay; conditions: A2780, 48 h
SW-620 [6] = assay: Antitumor activity against human SW620 cells xenografted in Balb/c nude mouse model assessed as increase in gamma-H2AX at 15 mg/kg/day measured after 14 days by Western blot analysis; assay type: functional, organism-based; conditions: time 14.0 day
SW480 [7] = assay: Downregulation of ATM level in human SW480 cells at 10 uM by immunoblot analysis; assay type: functional, cell-based; conditions: time <= 12.0 hrs, TDE = time-dependent effect
HCT-116 = assay: Cytotoxicity against human HCT-116 cells transfected with ATM shRNA assessed as reduction in cell viability measured after 48 hrs by MTT assay; conditions: HCT-116, 48 h
[8] = Toxicity in Balb/c nude mouse assessed as drug tolerance at 15 mg/kg/day administered for 14 days; assay type: organism-based; conditions: in vivo, 336 h, time 14 day
COLO 205 = assay: Cytotoxicity against human COLO 205 cells assessed as reduction in cell viability incubated for 48 hrs by MTT assay; conditions: COLO 205, 48 h
[9] = Downregulation of ATM level in human SW480 cells transfected with NC shRNA by immunoblot analysis; assay type: functional
K562 [10] = assay: Induction of DNA damage in human K562 cells assessed as accumulation of phosphorylated-chk2 (Thr68) measured after 8 hrs by immunoblot analysis; assay type: functional, cell-based
SW-620 [11] = assay: Cytotoxicity against human SW620 cells transfected with ATM shRNA assessed as reduction in cell viability measured after 48 hrs by MTT assay; conditions: SW-620, 48 h
SW-620 [12] = assay: Downregulation of ATM level in human SW620 cells at 10 uM by immunoblot analysis; assay type: functional, cell-based; conditions: time <= 24.0 hrs, TDE = time-dependent effect
SW-620 [13] = assay: Induction of DNA damage in human SW620 cells assessed as gamma-H2AX accumulation at 10 uM by immunoblot analysis; assay type: functional, cell-based; conditions: time <= 24.0 hrs, TDE = time-dependent effect
LoVo = assay: Cytotoxicity against human LoVo cells assessed as reduction in cell viability incubated for 48 hrs by MTT assay
RKO = assay: Cytotoxicity against human RKO cells assessed as reduction in cell viability incubated for 48 hrs by MTT assay
SW-620 [14] = assay: Cytotoxicity against human SW620 cells assessed as reduction in cell viability incubated for 48 hrs by MTT assay; conditions: SW-620, 48 h
SW-620 [15] = assay: Downregulation of BCL2 level in human SW620 cells at 1.25 to 10 uM measured after 12 hrs by immunoblot analysis; assay type: functional, cell-based; conditions: dose 1.25-10 µM
K562 [16] = assay: Induction of DNA damage in human K562 cells assessed as accumulation of phosphorylated-chk2 (Thr68) at 20 uM by immunoblot analysis; assay type: functional, cell-based; conditions: time <= 12.0 hrs, TDE = time-dependent effect
SW-620 [17] = assay: Induction of DNA damage in human SW620 cells assessed as accumulation of phosphorylated-chk2 (Thr68) at 10 uM by immunoblot analysis; assay type: functional, cell-based; conditions: time <= 24.0 hrs, TDE = time-dependent effect
K562 [18] = assay: Induction of DNA damage in human K562 cells assessed as gamma-H2AX accumulation at 20 uM by immunoblot analysis; assay type: functional, cell-based; conditions: time <= 12.0 hrs, TDE = time-dependent effect
SW-620 [19] = assay: Downregulation of PROX1 level in human SW620 cells at 10 uM measured after 12 hrs in presence of tert-butyl ((S)-1-((2S,4R)-4-hydroxy-2-((4-(4-methylthiazol-5-yl)benzyl)carbamoyl)pyrrolidin-1-yl)-3,3-dimethyl-1-oxobutan-2-yl)carbamate by immunoblot analysis; assay type: functional, cell-based
SW-620 [20] = assay: Antitumor activity against human SW620 cells xenografted in Balb/c nude mouse model assessed as fibrosis at 15 mg/kg/day measured after 14 days by H and E staining based analysis; assay type: functional, organism-based; conditions: time 14.0 day
SW480 [21] = assay: Potentiation of AZD6738 induced DNA damage in human SW480 cells assessed as gamma-H2AX accumulation in nuclei at 5 uM incubated for 12 hrs by immunohistochemical staining based analysis; assay type: functional, cell-based
SW480 [22] = assay: Upregulation of cleaved caspase 3 level in human SW480 cells at 1.25 to 10 uM measured after 12 hrs by immunoblot analysis; assay type: functional, cell-based; conditions: dose 1.25-10 µM
K562 [23] = assay: Cytotoxicity against human K562 cells assessed as reduction in cell viability incubated for 48 hrs by MTT assay; conditions: K562, 48 h
SW-620 [24] = assay: Antitumor activity against human SW620 cells xenografted in Balb/c nude mouse model assessed as decrease in pro caspase 3 level at 15 mg/kg/day measured after 14 days by Western blot analysis; assay type: functional, organism-based; conditions: time 14.0 day
SW-620 [25] = assay: Induction of DNA damage in human SW620 cells assessed as accumulation of phosphorylated-chk2 (Thr68) measured after 12 hrs by immunoblot analysis; assay type: functional, cell-based; conditions: dose 2.5-10 µM
SW-620 [26] = assay: Cytotoxicity against human SW620 cells transfected with NC shRNA assessed as reduction in cell viability measured after 48 hrs by MTT assay; conditions: SW-620, 48 h
SW-620 [27] = assay: Antitumor activity against human SW620 cells xenografted in Balb/c nude mouse model assessed as necrosis at 15 mg/kg/day measured after 14 days by H and E staining based analysis; assay type: functional, organism-based; conditions: time 14.0 day
[28] = Toxicity in Balb/c nude mouse assessed as effect on body weight loss at 15 mg/kg/day administered for 14 days […]; assay type: organism-based; conditions: in vivo, 336 h, time 14 day
SW-620 [29] = assay: Antitumor activity against human SW620 cells xenografted in Balb/c nude mouse model assessed as decrease in BCL2 protein level at 15 mg/kg/day measured after 14 days by Western blot analysis; assay type: functional, organism-based; conditions: time 14.0 day
SW-620 [30] = assay: Induction of apoptosis in human SW620 cells measured after 12 hrs by Annexin V-FITC/propidium iodide staining-based flow cytometric analysis; assay type: functional, cell-based; conditions: dose 5-10 µM
[31] = Downregulation of ATM level in human SW620 cells transfected with ATM shRNA by immunoblot analysis; assay type: functional, SW-620
[32] = Downregulation of ATM level in human HCT-116 cells transfected with NC shRNA by immunoblot analysis; assay type: functional
SW480 [33] = assay: Induction of apoptosis in human SW480 cells measured after 12 hrs by Annexin V-FITC/propidium iodide staining-based flow cytometric analysis; assay type: functional, cell-based; conditions: dose 5-10 µM
K562 [34] = assay: Upregulation of cleaved caspase 3 level in human K562 cells at 5 to 20 uM measured after 8 hrs by immunoblot analysis; assay type: functional, cell-based; conditions: dose 5-20 µM
SW480 [35] = assay: Cytotoxicity against human SW480 cells assessed as reduction in cell viability incubated for 48 hrs by MTT assay; conditions: SW480, 48 h

Compound: Cc1ncsc1-c1ccc(CNC(=O)[C@@H]2C[C@@H](O)CN2C(=O)[C@@H](NC(=O)CCCCCn2cc(CCCN3C(=O)/C(=C4/C(=O)Nc5ccccc54)c4ccccc43)nn2)C(C)(C)C)cc1
- Activity (SW-620 [1]): Dose-Dependent Effect
- Activity (SW-620 [2]): Active
- Activity (SW-620 [3]): Active
- Activity (K562 [4]): Tde
- Activity (SW480 [5]): Active
- IC50 (A2780): 3.96 µM
- Activity (SW-620 [6]): Active
- Activity (SW480 [7]): Tde
- IC50 (HCT-116): 26.4 µM
- Activity [8]: Non-Toxic
- IC50 (COLO 205): 5.11 µM
- Activity [9]: 100%
- Activity (K562 [10]): Dose-Dependent Effect
- IC50 (SW-620 [11]): 9.81 µM
- Activity (SW-620 [12]): Tde
- Activity (SW-620 [13]): Tde
- IC50 (LoVo): 6.73 µM
- IC50 (RKO): 3.95 µM
- IC50 (SW-620 [14]): 3.7 µM
- Activity (SW-620 [15]): Active
- Activity (K562 [16]): Tde
- Activity (SW-620 [17]): Tde
- Activity (K562 [18]): Tde
- Activity (SW-620 [19]): Active
- Activity (SW-620 [20]): Active
- Activity (SW480 [21]): Active
- Activity (SW480 [22]): Active
- IC50 (K562 [23]): 4.06 µM
- Activity (SW-620 [24]): Active
- Activity (SW-620 [25]): Dose-Dependent Effect
- IC50 (SW-620 [26]): 3.7 µM
- Activity (SW-620 [27]): Active
- Activity [28]: Non-Toxic
- Activity (SW-620 [29]): Active
- Activity (SW-620 [30]): Dose-Dependent Effect
- Activity [31]: 25%
- Activity [32]: 100%
- Activity (SW480 [33]): Dose-Dependent Effect
- Activity (K562 [34]): Active
- IC50 (SW480 [35]): 2.59 µM
